Our source for the Activity values is ChEMBL document CHEMBL3751852, “New mannose derivatives: The tetrazole analogue of mannose-6-phosphate as angiogenesis inhibitor” (2016).

The source made the active and inactive calls. No cut-off for these calls is given here.

This experiment relates to Chorioallantoic membrane. Nature of the experiment: Antiangiogenic activity in chicken chorioallantoic membrane assessed as area of neovascularization at 60 mg/ml administered on 7th embryonic day incubated for 4 days by microscopy (reference value: 100%). In kind it is functional, Gallus gallus.

Turning to `CO[C@H]1O[C@H](CCP(=O)(O)O)[C@@H](O)[C@H](O)[C@@H]1O`, the Activity came out at 138%.

As for `CO[C@H]1O[C@H](Cc2nnn[nH]2)[C@@H](O)[C@H](O)[C@@H]1O`, the Activity was determined as 68%.

For the compound `CO[C@H]1O[C@H](CS(=O)(=O)c2ccccc2)[C@@H](O)[C@H](O)[C@@H]1O`, for the setting “Gallus gallus”, the outcome was inactive.

Regarding `CO[C@H]1O[C@H](CCC(=O)O)[C@@H](O)[C@H](O)[C@@H]1O`, the Activity is 70%.

In the case of `CO[C@H]1O[C@H](COP(=O)(O)O)[C@@H](O)[C@H](O)[C@@H]1O`, the Activity was found to be 43%.
